Measured values: patent US12571019B2, “Nisin-permeabilized microbial cell catalysts” (DANMARKS TEKNISKE UNIVERSITET, priority 2020, dated 2026)

Columns and labels:
[1] = test system: S. thermophilus; details: Somkuti et al., 1998; cited from earlier work
[2] = test system: S. thermophilus CS1980; test: Lactose hydrolysis in POM buffer by permeabilized S. thermophilus CS1980 whole-cell catalyst; format: cell-based, Streptococcus thermophilus; details: for stability of the whole-cell catalyst: permeabilized 10 minutes at 28° C. (45% (v/v) ethanol or 2.5 μg/ml nisin), hydrolysis 50° C.
Method: S. thermophilus CS1980 was grown in 500-ml Erlenmeyer flasks containing 200 ml of medium at 37° C. for 16 h without agitation. As inoculum, 2 ml of a 24 hour, outgrown culture was used. Cells were collected by centrifugation at 10,000 g for 10 min at 4° C., washed once with sterile POM buffer (50 mM K2HPO4/KH2PO4, 1 mM MgCl2, pH 7.4) and finally re-suspended in POM buffer to an optical density (600 nm) of 0.33, corresponding to approximately 100 mg/l dry cell weight. The cell suspension was kept on ice until use. For permeabilization, cell suspensions were dispensed into sterile tubes (1 ml per tube) and centrifuged in a microcentrifuge at top speed for 5 min at 4° C.
Samples were withdrawn at different time points, and conversion of lactose (formation of glucose and galactose) was determined by HPLC analysis.
The concentrations of sugars (carbohydrate monomers and dimers) were determined using an Ultimate 3000 high-pressure liquid chromatography system (Dionex, Sunnyvale, CA) equipped with an Aminex HPX-87H column (Bio-Rad, Hercules, CA) and a Shodex RI-101 detector (Showa Denko KK, Tokyo, Japan). The column oven temperature was set to 30° C., and the mobile phase consisted of 5 mM H2SO4 with a flowrate of 0.5 ml/min.
Hydrolysis took place at 50° C.
Hydrolysis of lactose in POM buffer (50 g/l lactose) at 50° C. was carried out at a cell concentration of approximately 100 mg/l.
Hydrolysis of lactose (50 g/1) was carried out in POM buffer at 50° C.

[3] = test system: L. lactis strain MG1363 ΔldhB ΔldhX Δpta ΔadhE ΔbutBA ΔaldB (RD04); test: Alpha-acetolactate synthase activity of nisin-permeabilized L. lactis RD04 (pyruvate to alpha-acetolactate, HPLC); format: cell-based, Lactococcus lactis; details: 100 μg/ml nisin, 15 min 37° C.; 200 mM sodium pyruvate
Method: A modified L. lactis strain MG1363 lacking alpha-acetolactate decarboxylase activities was used in the present experiment. More specifically, the strain RD04 was L. lactis strain MG1363 ΔldhB ΔldhX Δpta ΔadhE ΔbutBA ΔaldB, while harboring an expression vector for overexpressing native alpha-acetolactate synthase (Als).
Alpha-acetolactate synthase activity was determined by investigating the conversion rate of pyruvate to alpha-acetolactate, using HPLC measurements of alpha-acetolactate formation.

[4] = test system: S. thermophilus strains from starter culture ST057; test: Lactose hydrolysis in POM buffer by nisin-permeabilized S. thermophilus strains from starter culture ST057; format: cell-based, Streptococcus thermophilus
Method: Streptococcus thermophilus (S. thermophilus) strain CS1980 was isolated from a Danish yoghurt (same as used in example 1). Additional S. thermophilus strains were isolated from starter cultures kindly provided by Sacco Srl. Italy (ST057, ST022).
Hydrolysis was performed at 50° C.

[5] = test system: S. thermophilus ST057-1; test: Hydrolysis of lactose in milk by nisin-permeabilized S. thermophilus ST057-1; format: cell-based, Streptococcus thermophilus
Method: Nisin-treated S. thermophilus ST057-1 was applied in hydrolysis of lactose in milk, at cell concentration of approximately 100 mg/l or 1 g/l. […] The starting concentration of lactose in the milk used was 52 g/l. Hydrolysis took place at 50° C.
Hydrolysis of lactose in milk (52 g/l lactose) using nisin-treated cells was carried out at a cell concentration of approximately 1 g/l. Hydrolysis took place at 50° C.

CCO [ethanol]
permeabilizing agent effect on measurable beta-galactosidase activity [1]: efficient as a permeabilizing agent | stability of the whole-cell catalyst [2]: compromised the stability of the whole-cell catalyst

nisin A
lactose hydrolyzed ([2]; 2.5 μg/ml nisin 10 min, 100 mg/l cells, 50 g/l lactose in POM buffer, hydrolysis at 50° C., within 24 hours): 95% | lactose conversion compared to control and ethanol-permeabilized cells ([2]; 2.5 μg/ml nisin, 10 minutes 28° C., 50 g/l lactose POM buffer, 50° C., 100 mg/l cells): perform better than the control as well as the ethanol-permeabilized cells | effect of prolonged nisin treatment ([2]; 30 minutes vs 10 minutes permeabilization): does not give better results | efficiency of permeabilization at different permeabilization temperatures ([2]; permeabilization at 28° C. and 37° C., 2.5 μg/ml nisin 10 min): equally efficient | cell stability after permeabilization ([2]; permeabilization at 55° C., 2.5 μg/ml nisin): seemed to be compromised | efficiency of permeabilization at different permeabilization temperatures ([2]; permeabilization temperatures 28-50° C., 2.5 μg/ml nisin): equally efficient | stability of the whole-cell catalyst [2]: higher stability | conversion of pyruvate to alpha-acetolactate compared to non-permeabilized cells [3]: performed much better than non-permeabilized cells | time to reach 80% hydrolysis ([4]; POM buffer, 100 mg/l whole-cell catalyst, 50° C.): ≤ 4 h | conversion of the lactose ([4]; two strains from starter culture ST057, 2.5 μg/ml nisin 10 min 28° C., hydrolysis 50° C., in less than half of the time of the other strains): > 90% | time to reach 80% hydrolysis ([5]; milk (52 g/l lactose), 100 mg/l whole-cell catalyst, 50° C.): more than 12 hours | conversion rate on increasing the whole-cell catalyst concentration ([5]; milk, 1 g/l vs 100 mg/l cells, 50° C.): significantly increased | lactose conversion in milk at different permeabilization temperature ([5]; permeabilization 28° C. vs 37° C., 1 g/l cells, hydrolysis 50° C.): performed equally well
